What all share (type): cell-based
One assay has as its system MM.1S cells. Nature of the assay: Effect of the compound on the proliferation of MM.1S cells (MTS). The settings on record: Homo sapiens, MM1.S, 168 h, 7 days, read-out: Cell inhibitory activity (IC50). The method, then:
MM.1S cells were cultured with 1640 plus 10% fetal bovine serum and collected. The cell concentration was diluted according to the action time of 7 days, and 180 ul cell suspension was added to each well of the 96-well cell plate to make the cell count to be 20,000. 20 ul of DMSO with a final concentration of 0.2% was added to the control cell wells. The compound was diluted 5-fold with the 10 mM stock solution, and 20 ul was also added to the compound cell wells (the final concentration of DMSO is 0.2%). The cells were placed in a 37° C., 5% CO2 incubator and incubated for 7 days. After preparing the reaction solution according to the MTS kit (Promega, G5430), 20 μL was added to each well, incubated in a 37° C., 5% CO2 incubator for 3-4 h. Read the 490 nm absorbance value with a microtiter plate, and used the 690 nm absorbance value as the background value and OD490-OD690 as the final initial data. The formula for calculating the inhibition rate of the compound is: inhibition rate=(OD DMSO-ODcompound)/(ODDMSO-Oblank)×100%. The compound's proliferation inhibition IC50 was fitted by Graph Pad Prism 5.0. The experiment was repeated three times, and three parallel experiments were used to calculate the average and standard deviation each time.

The subject of a further assay is MV-4-11 cells. Nature of the assay: Effect of the compound on proliferation of MV-4-11 cells (MTS). The note with it: Homo sapiens. The protocol: MV-4-11 cells were cultured with IMDM plus 10% fetal bovine serum and collected. The cell concentration was diluted according to the action time of 7 days, and 180 ul of cell suspension was added to each well of a 96-well cell plate to make the cell count to be 2000. 20 ul of DMSO with a final concentration of 0.2% was added to the control cell wells. The compound was diluted 5-fold with the 10 mM stock solution, and 20 ul was also added to the compound cell wells (the final concentration of DMSO was 0.2%). The cells were placed in a 37° C., 5% CO2 incubator and incubated for 7 days. After preparing the reaction solution according to the MTS kit (Promega, G5430), 20 μL was added to each well, incubated in a 37° C., 5% CO2 incubator for 3-4 h. Read the 490 nm absorbance value with a microtiter plate, and used the 690 nm absorbance value as the background value and OD490-OD690 as the final initial data. The formula for calculating the inhibition rate of the compound was: inhibition rate=(OD DMSO-ODcompound)/(ODDMSO-Oblank)×100%. The compound's proliferation inhibition IC50 was fitted by Graph Pad Prism 5.0. The experiment was repeated three times, and three parallel experiments were used to calculate the average and standard deviation each time. The cell viability test results were shown in Table 3: A means cell viability IC50<1 μM, B means cell viability 1 μM≤IC50≤20 μM, C means cell viability IC50>20 μM.

Another assay relates to Mino cells. Put plainly: Effect of the compound on the proliferation of Mino cells (MTS). The note with it: Homo sapiens, 72 h, 3 days, read-out: Inhibitory activity (IC50). The method, then:
Mino cells were cultured with 1640 plus […] and collected. The cell concentration was diluted according to the action time of 3 days, and 90 ul cell suspension was added to each well of the 96-well cell plate to make the cell count to be 8000. 10 ul of DMSO with a final concentration of 0.2% was added to the control cell wells. The compound was diluted 5-fold with the 10 mM stock solution, and 10 ul was also added to the compound cell wells (the final concentration of DMSO was 0.2%). The cells were placed in a 37° C., […] incubator and incubated for 3 days. After preparing the reaction solution according to the MTS kit (Promega, G5430), 20 μL was added to each well, incubated in a 37° C., 5% CO2 incubator for 3-4 h. Read the 490 nm absorbance value with a microtiter plate, and used the 690 nm absorbance value as the background value and OD490-OD690 as the final initial data. The formula for calculating the inhibition rate of the compound was: inhibition rate=(OD DMSO-ODcompound)/(ODDMSO-Oblank)×100%. The compound's proliferation inhibition IC50 was fitted by Graph Pad Prism 5.0. The experiment was repeated three times, and three parallel experiments were used to calculate the average and standard deviation each time.

Where [1] appears, read: MV4-11, 168 h, 7 days, MTS, read-out: Inhibitory activity (IC50).
Where [2] appears, read: MV4-11, read-out: cytostatic activity (IC50) on MV-4-11 cells.

Read-outs that look alike come from different tables or passages of the source. Where only a bound is given, the exact number is not on record here.

By IC50 is commonly meant the concentration needed to halve the response being measured. Regarding `Cc1nc2cccc(N)c2c(=O)n1C1CCC(=O)NC1=O` (stereo not shown) [CC-122, reference compound], the IC50 in the assay with MM.1S cells is less than 0.15 µM; with MV-4-11 cells (setting [1]), more than 20 µM; in the assay with MV-4-11 cells (setting [2]), more than 20 µM; in the assay on Mino cells it was 0.15 to 20 µM.
As to `O=C1CCC(N2Cc3c(OCc4ccc(CN5CCOCC5)cc4)cccc3C2=O)C(=O)N1` (stereo not shown) [CC-220, reference compound], the IC50 in the assay on MM.1S cells was less than 0.15 µM; in the assay on MV-4-11 cells (setting [1]) it was more than 20 µM; in the assay on MV-4-11 cells (setting [2]), more than 20 µM; with Mino cells it was less than 0.15 µM.
Take `O=C1CCC(N2Cc3c(OCc4cn(-c5cccc(Cl)c5Cl)nn4)cccc3C2=O)C(=O)N1` (stereo not shown) [Compound 18, 3-(4-((1-(2,3-dichlorophenyl)-1H-1,2,3-triazol-4-)methoxy)-1-oxoisoindolin-2-) piperidine-2,6-dione]: the half-maximal inhibitory concentration (IC50) with MM.1S cells is less than 0.15 µM; in the assay with MV-4-11 cells (setting [1]), less than 1 µM; in the assay with Mino cells, less than 0.15 µM.
For the compound `O=C1CCC(N2Cc3c(OCc4cn(-c5ccc(N6CCOCC6)cc5)nn4)cccc3C2=O)C(=O)N1` (stereo not shown) [Compound 19, 3-(4-((1-(4-morpholinophenyl)-1H-1,2,3-triazol-4-)methoxy)-1-oxoisoindolin-2-) piperidine-2,6-dione], the IC50 in the assay on MM.1S cells is less than 0.15 µM; with Mino cells it was 0.15 to 20 µM.
As to `O=C1CCC(N2Cc3c(OCc4cn(-c5ccc6ncsc6c5)nn4)cccc3C2=O)C(=O)N1` (stereo not shown) [Compound 23, 3-(4-((1-(benzo [d]thiazol-6)-1H-1,2,3-triazol-4-(methoxy)-1-oxoisoindolin-2-)piperidine-2,6-dione], the IC50 in the assay with MM.1S cells and with Mino cells was less than 0.15 µM each time.
For `O=C1CCC(N2Cc3c(OCc4cn(-c5ccc(O[C@@H]6CCOC6)cc5)nn4)cccc3C2=O)C(=O)N1` (stereo partly drawn) [Compound 24, 3-(1-oxo-4-((1-(4-(((R)-tetrahydrofuran-3-)oxy)phenyl)-1H-1,2,3-triazol-4-)methoxy)isoindolin-2-)piperidine-2,6-dione], the IC50 in the assay on MM.1S cells and with Mino cells was less than 0.15 µM each time.
Consider `O=C1CCC(N2Cc3c(OCc4cn(-c5ccc(O[C@H]6CCOC6)cc5)nn4)cccc3C2=O)C(=O)N1` (stereo partly drawn) [Compound 25, 3-(1-oxo-4-((1-(4-(((S)-tetrahydrofuran-3-)oxy)phenyl)-1H-1,2,3-triazol-4-)methoxy)isoindolin-2-)piperidine-2,6-dione], for which the IC50 in the assay with MM.1S cells and in the assay on Mino cells was less than 0.15 µM each time.
Take `O=C1CCC(N2Cc3c(OCc4cn(-c5ccc(OCC6CCOCC6)cc5)nn4)cccc3C2=O)C(=O)N1` (stereo not shown) [Compound 29, 3-(1-oxo-4-((1-(4-((2H-tetrahydropyran-4-)methoxy)phenyl)-1H-1,2,3-triazol-4-)methoxy)isoindolin-2-) piperidine-2,6-dione]: the IC50 in the assay with MM.1S cells was less than 0.15 µM; with Mino cells, 0.15 to 20 µM.
For `O=C1CCC(N2Cc3c(OCc4ncc(-c5ccc(OC(F)(F)F)cc5)s4)cccc3C2=O)C(=O)N1` (stereo not shown) [Compound 39, 3-(1-oxo-4-((5-(4-trifluoromethoxyphenyl)thiazol-2-)methoxy)isoindolin-2-) piperidine-2,6-dione], in that order: less than 0.15 µM and 0.15 to 20 µM.
For the compound `O=C1CCC(N2Cc3c(OCc4ncc(-c5ccc(OC(F)(F)F)cc5)o4)cccc3C2=O)C(=O)N1` (stereo not shown) [Compound 40, 3-(1-oxo-4-((5-(4-trifluoromethoxyphenyl)oxazol-2-)methoxy)isoindolin-2-) piperidine-2,6-dione], the IC50 in the assay with MM.1S cells and in the assay on Mino cells was less than 0.15 µM throughout.
For the compound `O=C1CCC(N2Cc3c(OCc4nnc(-c5ccc(OC(F)(F)F)cc5)s4)cccc3C2=O)C(=O)N1` (stereo not shown) [Compound 41, 3-(1-oxo-4-((5-(4-trifluoromethoxyphenyl)-1,3,4-thiadiazol-2-)methoxy)isoindolin-2-) piperidine-2,6-dione], the IC50 with MM.1S cells was less than 0.15 µM; in the assay on Mino cells, 0.15 to 20 µM.
The corresponding values for `O=C1CCC(N2Cc3c(OCc4ccc(-c5ccc(OC(F)(F)F)cc5)o4)cccc3C2=O)C(=O)N1` (stereo not shown) [Compound 42, 3-(1-oxo-4-((5-(4-trifluoromethoxyphenyl)furan-2-)methoxy)isoindolin-2-) piperidine-2,6-dione] are less than 0.15 µM and less than 0.15 µM.
`O=C1CCC(N2Cc3c(OCc4nnc(-c5ccc(OC(F)(F)F)cc5)o4)cccc3C2=O)C(=O)N1` (stereo not shown) [Compound 43, 3-(1-oxo-4-((5-(4-trifluoromethoxyphenyl)-1,3,4-oxadiazol-2-)methoxy)isoindolin-2-) piperidine-2,6-dione]: the IC50 in the assay on MM.1S cells and in the assay with Mino cells was less than 0.15 µM throughout.
For the compound `O=C1CCC(N2Cc3c(OCc4cnc(-c5ccc(OC(F)(F)F)cc5)s4)cccc3C2=O)C(=O)N1` (stereo not shown) [Compound 44, 3-(1-oxo-4-((2-(4-trifluoromethoxyphenyl)thiazol-5-)methoxy)isoindolin-2-) piperidine-2,6-dione], the IC50 in the assay on MM.1S cells and in the assay on Mino cells was less than 0.15 µM in each case.
As for `COC[C@H](Cc1ccccc1)n1cc(COc2cccc3c2CN(C2CCC(=O)NC2=O)C3=O)nn1` (stereo partly shown) [Compound 55], the figures for the IC50 in the assay on MM.1S cells and in the assay on MV-4-11 cells (setting [1]) were less than 0.15 µM and 1 to 20 µM, respectively.
The corresponding values for `O=C1CCC(N2Cc3c(OCc4cn(-c5ccc(Cl)cc5)nn4)cccc3C2=O)C(=O)N1` (stereo not shown) [Compound 74, 3-(4-((1-(4-chlorophenyl)-1H-1,2,3-triazol-4-yl)methoxy)-1-oxoisoindolin-2-yl) piperidine-2,6-dione] are less than 0.15 µM and less than 1 µM.
For `O=C1CCC(N2Cc3c(OCc4cn(-c5ccc(Cl)c(Cl)c5)nn4)cccc3C2=O)C(=O)N1` (stereo not shown) [Compound 75, 3-(4-((1-(3,4-dichlorophenyl)-1H-1,2,3-triazol-4-yl)methoxy)-1-isoindolin-2-yl) piperidine-2,6-dione], in that order: less than 0.15 µM and less than 1 µM.
The corresponding values for `O=C1CCC(N2Cc3c(OCc4cn(C56CC7CC(CC(C7)C5)C6)nn4)cccc3C2=O)C(=O)N1` [Compound 76, 3-(4-((1-((3S, 5S, 7S)-adamantan-1-yl)-1H-1,2,3-triazol-4-yl)methoxy)-1-isoindolin-2-yl) piperidin-2,6-dione] are less than 0.15 µM and less than 1 µM.
As to `O=C1CCC(N2Cc3c(OCc4cn(-c5ccc(OC(F)(F)F)cc5)nn4)cc(F)cc3C2=O)C(=O)N1` (stereo not shown) [Compound 77, 3-(6-fluoro-1-oxo-4-((1-(4-(trifluoromethoxy)phenyl)-1H-1,2,3-triazol-4-yl)methoxy)isoindolin-2-yl) piperidine-2,6-dione], the IC50 with MM.1S cells was less than 0.15 µM; in the assay on MV-4-11 cells (setting [1]) it was less than 1 µM.
In the case of `O=C1CCC(N2Cc3c(OCc4ncc(-c5ccc(OC(F)(F)F)cc5)o4)cc(F)cc3C2=O)C(=O)N1` (stereo not shown) [Compound 81, 3-(6-fluoro-1-oxo-4-((5-(4-(trifluoromethoxy)phenyl)oxazol-2-yl)methoxy)isoindolin-2-yl) piperidine-2,6-dione], the figures for the IC50 with MM.1S cells and in the assay on MV-4-11 cells (setting [1]) were less than 0.15 µM and less than 1 µM, respectively.
Turning to `O=C1CCC(N2Cc3c(NCc4cnc(-c5cccc(OC(F)(F)F)c5)o4)cccc3C2=O)C(=O)N1` (stereo not shown) [Compound 90], the IC50 in the assay on MM.1S cells and in the assay on Mino cells was less than 0.15 µM in each case.
`O=C1CCC(N2Cc3c(NCc4ncc(-c5ccc(OC(F)(F)F)cc5)o4)cccc3C2=O)C(=O)N1` (stereo not shown) [Compound 93]: the IC50 with MM.1S cells was less than 0.15 µM; with Mino cells it was 0.15 to 20 µM.

Values taken from patent publication US20220041578A1, “ISOINDOLINE COMPOUND, AND PREPARATION METHOD, PHARMACEUTICAL COMPOSITION, AND APPLICATION OF ISOINDOLINE COMPOUND” (Shanghai Institute of Meteria Medica, Chinese Academy of …, priority 2018, published 2022).
